Test results taken from PubChem BioAssay (NCI).
“And” between values parts separate entries of the source, which are not always exact repeats. Equal entries are not always repeated.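 Growth conditions: 96-well plates. Treatment: test compound, 48 hours, 5 concentrations. Analysis: linear interpolation between bracketing concentrations; unreached endpoints set to highest concentration. GI50 marks 50% less growth. TGI is the concentration that stops growth completely.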

Columns and labels:
Assay in all cases: growth of human tumour cells (NCI), 48 h
COLO 205 colon = test system: COLO 205 colon
EKVX NSCLC = test system: EKVX NSCLC
HCT-116 colon = test system: HCT-116 colon
HOP-62 NSCLC = test system: HOP-62 NSCLC
HOP-92 NSCLC = test system: HOP-92 NSCLC
LOX IMVI melanoma = test system: LOX IMVI melanoma
OVCAR-5 ovarian = test system: OVCAR-5 ovarian
SF-268 CNS = test system: SF-268 CNS
SF-295 CNS = test system: SF-295 CNS
UACC-62 melanoma = test system: UACC-62 melanoma

SMILES	GI50 (COLO 205 colon)	TGI (COLO 205 colon)	GI50 (EKVX NSCLC)	TGI (EKVX NSCLC)	GI50 (HCT-116 colon)	TGI (HCT-116 colon)	GI50 (HOP-62 NSCLC)	TGI (HOP-62 NSCLC)	GI50 (HOP-92 NSCLC)	TGI (HOP-92 NSCLC)	GI50 (LOX IMVI melanoma)	TGI (LOX IMVI melanoma)	GI50 (OVCAR-5 ovarian)	TGI (OVCAR-5 ovarian)	GI50 (SF-268 CNS)	TGI (SF-268 CNS)	GI50 (SF-295 CNS)	TGI (SF-295 CNS)	GI50 (UACC-62 melanoma)	TGI (UACC-62 melanoma)
COc1ccc(-c2c(NC(=O)Nc3ccc(Cl)c(C(F)(F)F)c3)cnn2-c2ccc(S(N)(=O)=O)cc2)cc1	2.31 µM	5.31 µM	3.77 µM	16.4 µM	2.04 µM	4.22 µM	4.07 µM	16.1 µM	2.02 µM	7.32 µM	2.75 µM	8.36 µM	3.54 µM	14.4 µM	3.34 µM	14.7 µM	2.72 µM	10.9 µM	2.07 µM	4.47 µM
CC(=O)OC1CC2C(C)(C)C(=O)C=C[C@]2(C)C2CCC3(C)C(c4ccoc4)C(=O)C4OC43[C@]12C (stereo not given in full)	–	34.2 µM	–	> 100 µM	–	26 µM	–	57.9 µM	–	38.1 µM	–	25.9 µM	–	60.9 µM	–	53.9 µM	–	37.7 µM	–	34.3 µM
C[N+]1(CCNP(=S)(NCC[N+]2(C)Cc3c(ccc4c3OCO4)C3C2c2cc4c(cc2C[C@@H]3O)OCO4)NCC[N+]2(C)Cc3c(ccc4c3OCO4)C3C2c2cc4c(cc2C[C@@H]3O)OCO4)Cc2c(ccc3c2OCO3)C2C1c1cc3c(cc1C[C@H]2O)OCO3 (stereo not given in full)	1.65 µM	–	45.9 µM	–	1.43 µM	–	7.52 µM	–	3.43 µM	–	1.92 µM	–	–	< 0.00191 µM	6.67 µM	–	1.43 µM	–	1.23 µM	–
COc1ccc(-c2oc3ncnc(N)c3c2-c2ccc(NC(=O)Nc3cc(C(F)(F)F)ccc3F)cc2)cc1	0.558 µM	1.45 µM	1.59 µM	9.74 µM	0.883 µM	2.84 µM	0.953 µM	3.38 µM	0.808 µM	5.4 µM	0.658 µM	3.21 µM	3.15 µM	8.82 µM	1.03 µM	3.76 µM	1.88 µM	7.47 µM	0.956 µM	4.23 µM
COC(=O)[C@@H](C)C[C@H](Cc1ccc(F)cc1)NC(=O)c1csc([C@@H](C[C@H](C(C)C)N(C)C(=O)[C@@H](NC(=O)[C@H]2CCCCN2C)C2CC2)OC(C)=O)n1	0.184 µM	1.47 µM	0.88 µM	> 25 µM	0.116 µM	> 9.49 µM	0.559 µM	> 25 µM	0.917 µM	> 12.8 µM	0.272 µM	> 25 µM	1.07 µM	> 25 µM	1.16 µM	> 25 µM	0.585 µM	> 25 µM	0.137 µM	> 25 µM
Cc1ccc(NC(=O)CCc2nnc3s/c(=C\C=C\c4ccccc4)c(=O)n23)cc1	–	> 100 µM	–	> 100 µM	–	> 100 µM	–	> 100 µM	–	> 100 µM	–	> 86.8 µM	–	> 100 µM	–	> 100 µM	–	> 100 µM	–	> 100 µM
NC1=C(O)/C(=N/NS(=O)(=O)c2ccccc2)C(c2ccc3c(c2)OCO3)O1 (stereo not given)	–	> 100 µM	–	> 100 µM	–	> 100 µM	–	> 100 µM	–	> 100 µM	–	> 100 µM	–	> 100 µM	–	> 100 µM	–	> 100 µM	–	> 100 µM
Oc1cccc2cccnc12	5.58 µM and 19.1 µM and 16.9 µM	40.3 µM and 67.7 µM and > 100 µM	–	> 100 µM	1.06 µM and 3.42 µM and 1.46 µM	23.1 µM and > 100 µM	4.47 µM and 5.39 µM and 13.5 µM	> 100 µM	–	> 100 µM	1.65 µM and 0.709 µM and 2.29 µM	14.8 µM and > 100 µM	–	21.1 µM and > 100 µM	4.04 µM and 32.7 µM and 3.29 µM	> 100 µM	–	> 100 µM	–	26.8 µM and > 100 µM
COc1ccc(NC(=O)c2ccc(C(F)(F)F)nc2Nc2ccc(Cl)cc2C)cc1Cl	2.72 µM	10.7 µM	3.47 µM	16.5 µM	3.08 µM	13.1 µM	10.7 µM	23.9 µM	2.9 µM	6.79 µM	3.96 µM	13.5 µM	9.62 µM	25.4 µM	5.4 µM	21.3 µM	2.32 µM	12.7 µM	3.35 µM	14.3 µM
Cc1ccc(S(=O)(=O)NC(Cc2ccccc2)C(=O)CCl)cc1 (stereo not given)	–	32.3 µM	–	34.4 µM	–	23.8 µM	–	31 µM	–	26.8 µM	–	20.1 µM	–	31.2 µM	–	31.4 µM	–	36.6 µM	–	26.4 µM
COc1cc(OCCCN2CCCC2)ccc1Nc1ncc(Cl)c(Nc2ccccc2P(C)(C)=O)n1	1.08 µM	2.81 µM	0.828 µM	> 20.5 µM	1.74 µM	7.24 µM	2.11 µM	12.5 µM	0.163 µM	1.25 µM	1.32 µM	4.4 µM	1.07 µM	22.5 µM	2.49 µM	10.6 µM	2.7 µM	14.2 µM	2.43 µM	12.9 µM
